We go through one molecule from ChEMBL document CHEMBL5727632, “Substituted 1H-imidazo[4,5-b]pyridin-2(3H)-ones and their use as GluN2B receptor modulators” (2020).

This assay has as its target Glutamate receptor ionotropic, NMDA 2B (Homo sapiens, UniProt Q05586+Q13224). As to the kind of experiment: Standard cell-based calcium flux assay: NMDA receptors are ion channels that are highly permeable to Ca2+ ions, rendering it possible to monitor NMDA receptor function using cell-based calcium flux assay. In this assay, co-agonists glutamate and glycine are added to cells heterologously expressing human GluN1/GluN2B NMDA receptors to initiate cellular Ca2+ influx. The time course of the changes in intracellular calcium is measured using a fluorescent dye and a FLIPR (Fluorometric Imaging Plate Reader) device.Twenty four hours before measurements, the expression of the NMDA receptors in the stable cell line is induced with Tet-On inducible system in the presence of a non-selective NMDA receptor blocker. On the day of the experiment, cell culture media is carefully washed and the cells are loaded with Calcium 5 Dye Kit (Molecular Devices) in dye loading buffer containing 137 mM NaCl, 4 mM KCl, 2 mM CaCl2, 0.5 mM MgCl2 (standard assay) or 1.5 mM MgCl2 (HTS assay), 10 mM HEPES and 5 mM D-glucose; pH 7.4. […]. For orientation: Calcium assays in cells follow changes in intracellular calcium, usually with a dye or a luminescent sensor.

Glutamate receptor ionotropic, NMDA 2B, sequence (Q13224 whole entry, one chain of several): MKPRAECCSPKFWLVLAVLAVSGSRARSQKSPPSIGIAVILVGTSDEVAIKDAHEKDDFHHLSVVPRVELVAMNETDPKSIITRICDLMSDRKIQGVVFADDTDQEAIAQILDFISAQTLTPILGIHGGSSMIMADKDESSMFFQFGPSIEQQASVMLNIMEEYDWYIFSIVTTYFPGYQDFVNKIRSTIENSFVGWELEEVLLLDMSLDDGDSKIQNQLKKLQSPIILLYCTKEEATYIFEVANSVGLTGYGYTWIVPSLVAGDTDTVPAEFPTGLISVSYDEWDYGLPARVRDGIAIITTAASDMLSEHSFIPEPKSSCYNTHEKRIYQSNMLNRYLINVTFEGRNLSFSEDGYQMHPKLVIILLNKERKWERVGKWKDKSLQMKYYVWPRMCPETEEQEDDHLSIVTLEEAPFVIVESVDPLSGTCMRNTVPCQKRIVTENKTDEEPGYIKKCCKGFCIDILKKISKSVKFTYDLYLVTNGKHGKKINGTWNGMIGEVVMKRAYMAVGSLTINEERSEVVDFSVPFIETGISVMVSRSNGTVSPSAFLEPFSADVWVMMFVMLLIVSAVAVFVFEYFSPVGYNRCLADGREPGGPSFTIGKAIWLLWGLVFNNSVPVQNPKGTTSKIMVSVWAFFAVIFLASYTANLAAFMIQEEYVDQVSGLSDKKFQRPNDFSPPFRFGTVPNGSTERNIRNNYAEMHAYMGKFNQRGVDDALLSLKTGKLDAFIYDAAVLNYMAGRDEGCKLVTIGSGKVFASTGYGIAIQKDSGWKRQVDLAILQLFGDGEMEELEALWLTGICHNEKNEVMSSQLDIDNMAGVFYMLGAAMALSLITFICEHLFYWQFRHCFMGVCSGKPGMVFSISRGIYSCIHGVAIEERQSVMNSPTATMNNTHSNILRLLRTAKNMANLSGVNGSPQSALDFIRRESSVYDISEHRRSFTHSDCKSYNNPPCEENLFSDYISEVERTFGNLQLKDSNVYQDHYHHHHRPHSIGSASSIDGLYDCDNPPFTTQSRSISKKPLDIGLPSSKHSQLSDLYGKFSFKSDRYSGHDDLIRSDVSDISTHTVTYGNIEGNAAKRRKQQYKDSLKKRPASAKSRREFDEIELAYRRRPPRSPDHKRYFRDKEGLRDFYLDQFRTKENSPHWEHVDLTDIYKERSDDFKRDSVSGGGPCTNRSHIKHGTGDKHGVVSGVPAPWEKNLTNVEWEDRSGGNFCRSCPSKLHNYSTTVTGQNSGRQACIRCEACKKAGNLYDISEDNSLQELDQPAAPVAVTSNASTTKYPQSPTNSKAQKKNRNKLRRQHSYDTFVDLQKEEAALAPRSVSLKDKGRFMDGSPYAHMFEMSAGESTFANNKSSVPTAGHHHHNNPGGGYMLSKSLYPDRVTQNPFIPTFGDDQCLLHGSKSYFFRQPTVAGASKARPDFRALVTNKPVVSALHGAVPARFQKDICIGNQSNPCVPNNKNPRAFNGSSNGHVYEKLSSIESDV

`Cn1c(=O)n(CC(=O)N2CCC2)c2cc(-c3cc(OCCF)cc(C(F)(F)F)c3)cnc21`: the half-maximal inhibitory concentration (IC50) is 1290 nM.

Usually IC50 stands for the concentration needed to halve the response being measured.
